Assay results: US20150038430A1, “THERAPEUTIC PEPTIDOMIMETIC MACROCYCLES” (AILERON Therapeutics, Inc., priority 2008, published 2015)

What was measured:
A375 = type: cell-based, human; settings: 24 h
Experimental: (§1) Cell viability assays shown in FIGS. 34-52 were performed according to a similar protocol. Cells were split at optimal cell density a day prior to the initiation of the study. The next day, cells were washed twice in serum-free Opti-MEM media and 4000 cells/well were added to each well in a final volume of […] Opti-MEM. For serum-free experiments, macrocycles were diluted from 2 mM stocks (100% DMSO) in sterile water to prepare 400 μM working solutions. A 40 μM solution was then generated by ten-fold dilution in assay buffer. The macrocycle and controls were then serially diluted two-fold in assay buffer in dosing plates to provide concentrations between 1.2 and 40 μM, respectively. For experiments in 2% human serum, macrocycles were diluted from 10 mM stocks (100% DMSO) in sterile water to prepare 1 mM working solutions. A 100 μM solution was generated by ten-fold dilution in assay buffer. The macrocycles and controls were then serially diluted two-fold in assay buffer in dosing plates to provide concentrations between 3 and 100 μM, respectively. 50 μl of each dilution was then added to the appropriate wells of the test plate to achieve final concentrations of the macrocycle between 0.6 to 20 μM (for serum free experiment) or 1.5 to 50 μM (for 2% serum experiment), respectively. Controls included wells without macrocycles containing the same concentration of DMSO as the macrocycle-containing wells, wells containing 0.1% Triton X-100, and wells containing no cells. Plates were incubated for 24 hours at 37° C. in a humidified 5% CO2 atmosphere. At the end of a 24 hr incubation period, a CellTiter-Glo Luminescent Cell Viability Assay was performed according to manufacturer's instructions (Promega, catalog #G7571) and the luminescence was measured using a BIO-TEK synergy HT Plate reader. Values were plotted as percent viable, i.e. as a percentage of the negative control value (derived from cells exposed to DMSO only). All assays were performed in duplicate.
(§2) The following tables summarize the EC50 values (μM) observed with peptidomimetic macrocycles of the invention in various cell lines: […]

DHL-6 = type: cell-based, human; settings: 24 h
Experimental: as §1, §2

Jurkat = type: cell-based, human; settings: 24 h
Experimental: as §1, §2

MDA-MB231-Met = type: cell-based, human; settings: 24 h
Experimental: as §1, §2

MM1S = type: cell-based, human; settings: 24 h
Experimental: as §1, §2

Molt-4 = type: cell-based, human; settings: 24 h
Experimental: as §1, §2

NCI-H82 (SCLC-MCL1+) = type: cell-based, human; settings: 24 h
Experimental: as §1, §2

OVCAR8 = type: cell-based, human; settings: 24 h
Experimental: as §1, §2

PC3 = type: cell-based, human; settings: 24 h
Experimental: as §1, §2

RS4;11 = type: cell-based, human; settings: 24 h
Experimental: as §1, §2

Raji = type: cell-based, human; settings: 24 h
Experimental: as §1, §2

SEMK2 = type: cell-based, human; settings: 24 h
Experimental: as §1, §2

BAX = biological target: T1, BAX (Homo sapiens, UniProt Q07812); assay: Immunoprecipitation in MM1S cell lysates; type: binding; settings: multiple myeloma (MM1S) cell lysates
T1 construct: endogenous in cells; host or cells: MM1S multiple myeloma cells (lysate)
Experimental: It is possible to measure binding of peptides or peptidomimetic macrocycles to their natural acceptors in cell lysates or intact cells by immunoprecipitation and pull-down experiments. For example, intact cells are incubated with fluoresceinated (FITC-labeled) or biotinylated compounds for 4 hrs in the absence of serum, followed by serum replacement and further incubation that ranges from 4-18 hrs. Alternatively, cells can be incubated for the duration of the experiment in Opti-MEM (Invitrogen). Cells are then pelleted and incubated in lysis buffer (50 mM Tris [pH 7.6], 150 mM NaCl, 1% CHAPS and protease inhibitor cocktail) for 10 minutes at 4° C. 1% NP-40 or Triton X-100 may be used instead of CHAPS. Extracts are centrifuged at 14,000 rpm for 15 minutes and supernatants collected and incubated with 10 μl goat anti-FITC antibody or streptavidin-coated beads for 2 hrs, rotating at 4° C. followed by further 2 hrs incubation at 4° C. with protein A/G Sepharose (50 μl of 50% bead slurry).). No secondary step is necessary if using streptavidin beads to pull down biotinylated compounds. […]

Bcl-xL = Bcl-xL (Homo sapiens, UniProt Q07817); assay: Protein-ligand binding experiment (SEC-LC-MS); settings: 1 μM macrocycle plus 5 μM Bcl-xL, 60 min room temperature
Experimental: Protein-ligand binding experiments were conducted according to the following representative procedure outlined for a system-wide control experiment using 1 μM SP-4 plus 5 μM Bcl-xL. A 1 μl DMSO aliquot of a 40 μM stock solution of peptidomimetic macrocycle was dissolved in 19 μl of PBS (Phosphate-buffered saline: 50 mM, pH 7.5 Phosphate buffer containing 150 mM NaCl). The resulting solution was mixed by repeated pipetting and clarified by centrifugation at 10 000 g for 10 min. To a 4 μl aliquot of the resulting supernatant was added 4 μl of 10 μM BCL-xL in PBS. Each 8.0 μl experimental sample thus contained 40 pmol (1.5 μg) of protein at 5.0 μM concentration in PBS plus 1 μM peptidomimetic macrocycle and 2.5% DMSO. Duplicate samples thus prepared for each concentration point were incubated for 60 min at room temperature, and then chilled to 4° C. prior to size-exclusion chromatography-LC-MS analysis of 5.0 μL injections. Samples containing a target protein, protein-ligand complexes, and unbound compounds were injected onto an SEC column, where the complexes were separated from non-binding component by a rapid SEC step. The SEC column eluate was monitored using UV detectors to confirm that the early-eluting protein fraction, which elutes in the void volume of the SEC column, was well resolved from unbound components that are retained on the column. […]

Sequence of Bcl-xL (Q07817 whole entry): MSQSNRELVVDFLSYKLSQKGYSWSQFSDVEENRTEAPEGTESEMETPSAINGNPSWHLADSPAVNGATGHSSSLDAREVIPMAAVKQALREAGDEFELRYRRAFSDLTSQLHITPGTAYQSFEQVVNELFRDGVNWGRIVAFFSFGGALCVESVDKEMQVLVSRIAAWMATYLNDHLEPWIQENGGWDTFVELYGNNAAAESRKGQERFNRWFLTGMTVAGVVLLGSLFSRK
T1 sequence (Q07812 whole entry): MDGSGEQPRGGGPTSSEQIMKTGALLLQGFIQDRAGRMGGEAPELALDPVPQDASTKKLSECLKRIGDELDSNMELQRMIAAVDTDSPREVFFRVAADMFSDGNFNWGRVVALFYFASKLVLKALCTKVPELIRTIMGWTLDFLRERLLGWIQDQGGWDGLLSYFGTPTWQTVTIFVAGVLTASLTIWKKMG

EC50 (A375): 8 µM | EC50 (DHL-6): 3.8 µM | EC50 (Jurkat): 1.6 µM | EC50 (MDA-MB231-Met): 8.5 µM | EC50 (MM1S): 4.9 µM | EC50 (Molt-4): 2.2 µM | EC50 (NCI-H82 (SCLC-MCL1+)): 4.9 µM | EC50 (OVCAR8): 20 µM | EC50 (PC3): 5 µM | EC50 (RS4;11): 10 µM | EC50 (Raji): 9 µM | EC50 (SEMK2): 4 µM | detection of protein-ligand complex with Bcl-xL (Bcl-xL): detection of the protein-ligand complex
Structure (SMILES): CC[C@H](C)[C@H](NC(C)=O)C(=O)N[C@@H](Cc1c[nH]c2ccccc12)C(=O)N[C@H](C(=O)N[C@@H](C)C(=O)N[C@@H](CCC(N)=O)C(=O)N[C@@H](CCC(=O)O)C(=O)N[C@@H](CC(C)C)C(=O)N[C@@H](CCCNC(=N)N)C(=O)NC1(C)CCCC=CCCCC(C)(C(=O)N[C@@H](Cc2ccccc2)C(=O)N[C@@H](CC(N)=O)C(=O)N[C@@H](C)C(=O)N[C@@H](Cc2ccc(O)cc2)C(=O)N[C@@H](Cc2ccc(O)cc2)C(=O)N[C@@H](C)C(=O)N[C@@H](CCCNC(=N)N)C(=O)N[C@@H](CCCNC(=N)N)C(N)=O)NC(=O)[C@H](CC(=O)O)NC(=O)CNC(=O)[C@H]([C@@H](C)CC)NC1=O)[C@@H](C)CC (some centres unmarked) [SP-4]
binding to pro-apoptotic target protein BAX (BAX): sequence-specific and structure-specific binding
